# Assay results taken from patent US12006313B1, “7-(4-((5-(benzylideneamino)-2-thioxo-1,3,4-thiadiazol-3(2H)-yl)methyl)piperazin-1-yl)-1-cyclopropyl-6-fluoro-4-oxo-1,4-dihydroquinoline-3-carboxylic acid as an anti-inflammatory and anticancer compound” (KING FAISAL UNIVERSITY, priority 2023, dated 2024).
# What was measured:
# [1] = system: human prostate cancer cells (PC3); assay: Assessment of cytotoxicity by SRB assay, PC3; type: cell-based; conditions: 72 h
# Protocol: (§1) The human prostate cancer cells (PC3) and human osteosarcoma cells (MG-63) were obtained from Nawah Scientific Inc. (Mokatam, Cairo, Egypt) and cultured in DMEM (Dulbecco's modified eagle's medium), Gibco, USA, supplemented with fetal bovine serum (FBS) at a concentration of 10% and 100 U/mL of penicillin and streptomycin (PS). The Cells were incubated at 37° C. in a humidified environment that contained 5% CO2.
# (§2) Cells were seeded in 96-well plates as aliquots of 100 μL cell suspension and incubated in a complete media for 24 h. afterward, cells were treated with N′-(1-naphthoyloxy)-2-(benzo[d]thiazol-2-yl)acetimidamide at diverse concentrations ranging from 0.01 μM to 100 μM for 72 h. Then, cells were fixed at 4° C. for one hour with 150 μL of 10% trichloroacetic acid (TCA). After washing the cells five times with distilled water, 70 μL of sulforhodamine (SRB) solution (0.4% w/v) was added and incubated for 10 min at room temperature in a dark place. […] Then, 150 μL of Tris pH 10.5 (10 mM) was added, and the absorbance was measured at 540 nm using a BMG LABTECH®-FLUOstar Omega microplate reader (Ortenberg, Germany). Half maximal inhibitory concentrations (IC50) values were calculated for each experiment using GraphPad Prism 6 software. […]
# (§3) The inhibition was calculated using the following equation: Inhibition %=100-Average Viability
# [2] = target: Bovine Serum Albumin (Bos taurus, UniProt P02769); assay: Bovine Serum Albumin assay (BSA), inhibition of protein denaturation; type: biochemical; conditions: 0.4% w/v BSA, pH 6.4, 72° C. for 10 minutes, turbidity at 660 nm
# Sequence of Bovine Serum Albumin (P02769 25-607): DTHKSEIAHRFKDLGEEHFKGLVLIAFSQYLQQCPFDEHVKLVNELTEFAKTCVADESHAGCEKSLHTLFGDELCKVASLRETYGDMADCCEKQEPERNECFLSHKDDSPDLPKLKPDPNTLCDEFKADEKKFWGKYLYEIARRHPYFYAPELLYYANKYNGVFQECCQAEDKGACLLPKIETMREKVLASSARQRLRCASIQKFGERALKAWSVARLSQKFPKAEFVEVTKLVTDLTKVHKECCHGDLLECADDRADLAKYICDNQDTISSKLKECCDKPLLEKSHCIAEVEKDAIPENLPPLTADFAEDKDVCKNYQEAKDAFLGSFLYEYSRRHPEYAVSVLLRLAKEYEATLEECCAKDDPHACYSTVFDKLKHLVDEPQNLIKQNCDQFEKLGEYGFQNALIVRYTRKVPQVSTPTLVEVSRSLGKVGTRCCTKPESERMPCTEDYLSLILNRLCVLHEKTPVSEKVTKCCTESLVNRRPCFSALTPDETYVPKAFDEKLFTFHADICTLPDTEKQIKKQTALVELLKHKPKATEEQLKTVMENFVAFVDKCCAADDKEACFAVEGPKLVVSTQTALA
# Protocol: In vitro-inflammatory activities of the tested samples were determined using a modified method of the BSA assay reported by Williams et al. BSA solution (0.4%, w/v) was prepared in Tris Buffered Saline. The pH was adjusted to 6.4 with glacial acetic acid. Different dilutions of 20, 40, 60, 80, and 100 μg/mL of the stock solutions were added to test tubes containing 1 mL of 0.4%, w/v BSA buffer solution. Both negative (solvent) and positive (aspirin) controls were assayed in a similar manner. The solutions were then heated in a water bath at 72° C. for 10 minutes and cooled for 20 minutes under laboratory conditions. The turbidity of the solutions (level of protein precipitation) was measured at 660 nm in Spectrophotometer (V-770 UV-Visible/NIR Spectrophotometer).
# The percentage inhibition of precipitation (protein denaturation) was determined relative to the negative control using the following equation:
# [formula] % Anti-Denaturation Activity=% Inhibition of Protein Denaturation=% Anti-inflammatory Activity
# [3] = system: human osteosarcoma cells (MG-63); assay: Assessment of cytotoxicity by SRB assay, MG-63; type: cell-based; conditions: MG-63 cells, 72 h
# Protocol: as §1, §2, §3
smiles,measurement,setting,value
"O=C(O)c1cn(C2CC2)c2cc(N3CCN(Cn4nc(/N=C/c5ccccc5)sc4=S)CC3)c(F)cc2c1=O [7-(4-((5-(benzylideneamino)-2-thioxo-1,3,4-thiadiazol-3(2H)-yl)methyl)piperazin-1-yl)-1-cyclopropyl-6-fluoro-4-oxo-1,4-dihydroquinoline-3-carboxylic acid]",antiproliferative activity,[1],excellent antiproliferative activities
same,in vitro anti-inflammatory activity (inhibition of protein denaturation),[2],considerable anti-inflammatory effect
same,melting point,,241 to 243 °C
same,antiproliferative activity,[3],excellent antiproliferative activities
